Measured values published in US10894788B2, “Inhibitors of cyclin-dependent kinases” (Kinnate Biopharma Inc., priority 2018, dated 2021).

Target: CDK12 (Homo sapiens (Human), UniProt Q9NYV4)
Assay: Radiometric protein kinase assay (33PanQinase Activity Assay), Assay Condition B (thiol-free conditions)
Type: biochemical
Settings: thiol-free conditions (1 mM TCEP, glutathione removed)
Experimental: Example 2—Assay Condition B (Thiol-Free Conditions)
The IC50 profile of compounds was determined using one protein kinase in a customized, thiol free assay. […] Prior to testing, the 1×10^−03 M stock solutions in column 2 of the master plates were subjected to a serial, semi-logarithmic dilution using 100% DMSO as a solvent. […] Column 1 and 7 were filled with 100% DMSO as controls. Subsequently, 2×10 microliter from each well of the serial diluted copy plates were aliquoted with a 96 channel pipettor into two identical sets of “compound dilution plates”. All plates were barcoded for automated identification and tracking purposes. […] All compounds were stored as powder until being solubilized in DMSO. Solubilized compounds were stored as 1×10^−02 M/100% DMSO stock solutions. Prior to the assay process, 90 microliters of H2O were added to each well of a set of compound dilution plates. To minimize potential precipitation, the H2O was added to each plate only a few minutes before the transfer of the compound solutions into the assay plates. Each plate was shaken thoroughly, resulting in compound dilution plates with a final of 10% DMSO. For each assay, 5 microliters of solution from each well of the compound dilution plates/10% DMSO were transferred into the assay plate. The final volume of the assay was 50 μl. All compounds were tested at 10 final assay concentrations in the range from 1×10^−05 M to 3×10^−10 M, in singlicate. The final DMSO concentration in the reaction cocktails was 1% in all cases. A radiometric protein kinase assay (33PanQinase® Activity Assay) was used for measuring the kinase activity of the protein kinase. All kinase assays were performed in 96-well FlashPlates™ from PerkinElmer (Boston, Mass., USA) in a 50 microliter reaction volume. The reaction cocktail was pipetted in four steps in the following order: 20 microliter of assay buffer (standard buffer)·5 microliter of ATP solution (in H2O)·5 microliter of test compound (in 10% DMSO)·20 microliter enzyme/substrate mix. […] For all experiments labeled as “Thiol-free”, all glutathione was exchanged from protein preparations so as to be removed from the assay and final buffer conditions contained no thiol-containing reagents. This was done so there would be no interference with the key cysteines in the proteins of interest.
For data analysis, the median value of the counts in column 1 (n=8) of each assay plate was defined as “low control”. This value reflects unspecific binding of radioactivity to the plate in the absence of a protein kinase but in the presence of the substrate. The median value of the counts in column 7 of each assay plate (n=8) was taken as the “high control”, i.e. full activity in the absence of any inhibitor. The difference between high and low control was taken as 100% activity. As part of the data evaluation the low control value from a particular plate was subtracted from the high control value as well as from all 80 “compound values” of the corresponding plate. The residual activity (in %) for each well of a particular plate was calculated by using the following formula: Res. Activity (%)=100×[(cpm of compound−low control)/(high control−low control)]
The residual activities for each concentration and the compound IC50 values were calculated using Quattro Workflow V3.1.1 (Quattro Research GmbH, Munich, Germany; www.quattro-research.com). […] The fitting method used was a least-squares fit. As a parameter for assay quality, the Z′-factor (Zhang et al., J. Biomol. Screen. 2: 67-73, 1999) for the low and high controls of each assay plate (n=8) was used. ProQinase's criterion for repetition of an assay plate is a Z′-factor below 0.4 (Iversen et al., J. Biomol. Screen. 3: 247-252, 2006).

Sequence of CDK12 (Q9NYV4 whole entry): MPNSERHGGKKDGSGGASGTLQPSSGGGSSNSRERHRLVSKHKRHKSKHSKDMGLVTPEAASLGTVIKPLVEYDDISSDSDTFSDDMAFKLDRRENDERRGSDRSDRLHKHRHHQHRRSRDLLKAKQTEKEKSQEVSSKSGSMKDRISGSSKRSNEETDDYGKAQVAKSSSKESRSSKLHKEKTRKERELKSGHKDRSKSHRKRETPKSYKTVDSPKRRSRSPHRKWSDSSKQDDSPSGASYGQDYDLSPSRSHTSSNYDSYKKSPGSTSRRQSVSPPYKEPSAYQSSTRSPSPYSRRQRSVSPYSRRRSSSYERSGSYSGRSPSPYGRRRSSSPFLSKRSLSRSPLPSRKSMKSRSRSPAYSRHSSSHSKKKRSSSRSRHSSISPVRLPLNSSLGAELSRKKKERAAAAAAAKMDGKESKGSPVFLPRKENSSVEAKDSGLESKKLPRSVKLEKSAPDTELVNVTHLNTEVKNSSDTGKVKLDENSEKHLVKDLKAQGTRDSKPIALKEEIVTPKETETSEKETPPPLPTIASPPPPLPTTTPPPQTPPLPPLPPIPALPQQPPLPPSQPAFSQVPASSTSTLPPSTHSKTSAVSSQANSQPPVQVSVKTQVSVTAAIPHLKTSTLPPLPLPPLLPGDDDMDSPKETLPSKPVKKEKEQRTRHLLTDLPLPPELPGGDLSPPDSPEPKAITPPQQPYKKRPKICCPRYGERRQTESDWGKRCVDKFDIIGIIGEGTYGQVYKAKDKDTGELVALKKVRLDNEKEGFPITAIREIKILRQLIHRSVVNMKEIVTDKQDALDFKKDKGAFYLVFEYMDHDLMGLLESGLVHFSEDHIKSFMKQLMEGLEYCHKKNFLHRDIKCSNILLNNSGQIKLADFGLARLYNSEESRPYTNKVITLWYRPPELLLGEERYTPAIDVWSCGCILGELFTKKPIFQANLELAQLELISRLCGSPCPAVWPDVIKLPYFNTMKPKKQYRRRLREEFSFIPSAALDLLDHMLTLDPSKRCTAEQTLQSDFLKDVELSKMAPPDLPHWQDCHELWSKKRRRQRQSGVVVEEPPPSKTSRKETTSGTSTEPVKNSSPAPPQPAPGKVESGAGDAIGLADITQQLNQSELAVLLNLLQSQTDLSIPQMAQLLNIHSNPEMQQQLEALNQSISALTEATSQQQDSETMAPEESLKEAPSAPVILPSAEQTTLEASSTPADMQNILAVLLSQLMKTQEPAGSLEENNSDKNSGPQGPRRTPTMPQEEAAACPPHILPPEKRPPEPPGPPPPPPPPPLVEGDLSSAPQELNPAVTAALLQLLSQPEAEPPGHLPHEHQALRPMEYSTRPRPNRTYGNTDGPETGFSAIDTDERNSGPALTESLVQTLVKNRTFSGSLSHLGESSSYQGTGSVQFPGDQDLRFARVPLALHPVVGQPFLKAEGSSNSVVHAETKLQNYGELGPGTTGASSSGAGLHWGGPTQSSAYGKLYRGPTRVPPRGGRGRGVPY
Sequence of CDK12 (O75909 whole entry partner): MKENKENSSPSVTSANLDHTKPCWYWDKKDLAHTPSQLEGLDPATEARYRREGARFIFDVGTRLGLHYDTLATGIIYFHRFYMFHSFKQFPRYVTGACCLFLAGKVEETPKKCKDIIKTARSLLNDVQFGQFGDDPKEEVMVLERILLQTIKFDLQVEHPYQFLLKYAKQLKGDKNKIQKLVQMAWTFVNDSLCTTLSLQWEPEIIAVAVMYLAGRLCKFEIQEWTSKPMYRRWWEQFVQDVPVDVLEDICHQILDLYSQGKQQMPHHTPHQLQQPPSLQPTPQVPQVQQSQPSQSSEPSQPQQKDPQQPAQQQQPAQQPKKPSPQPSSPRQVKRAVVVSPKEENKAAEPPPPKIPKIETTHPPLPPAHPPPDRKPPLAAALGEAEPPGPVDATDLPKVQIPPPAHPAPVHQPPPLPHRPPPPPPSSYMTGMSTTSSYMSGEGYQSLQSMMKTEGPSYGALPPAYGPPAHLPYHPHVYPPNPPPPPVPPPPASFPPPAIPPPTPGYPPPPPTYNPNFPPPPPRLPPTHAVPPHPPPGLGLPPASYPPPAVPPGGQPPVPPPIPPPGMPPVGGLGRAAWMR

| SMILES | IC50 [nM] |
| --- | --- |
| C=CC(=O)N1CCc2cc(C(=O)N3CC[C@@H](Nc4ncc(Cl)cn4)C3)ccc21 [Example 30, (R)-1-(5-(3-((5-chloropyrimidin-2-yl)amino)pyrrolidine-1-carbonyl)indolin-1-yl)prop-2-en-1-one] | < 100 |
| C=CC(=O)Nc1ccc(C(=O)N2CC[C@@H](Nc3ncc(Cl)cn3)C2)cc1OC [Example 31, (R)—N-(4-(3-((5-chloropyrimidin-2-yl)amino)pyrrolidine-1-carbonyl)-2-methoxyphenyl)acrylamide] | < 100 |
| C=CC(=O)Nc1ccc(C(=O)N2CC[C@@H](Nc3ncc(Cl)cn3)C2)c(C)c1 [Example 32, (R)—N-(4-(3-((5-chloropyrimidin-2-yl)amino)pyrrolidine-1-carbonyl)-3-methylphenyl)acrylamide] | 100 to 1000 |
| C=CC(=O)Nc1c(C)cc(C(=O)N2CC[C@@H](Nc3ncc(Cl)cn3)C2)cc1C [Example 33, (R)—N-(4-(3-((5-chloropyrimidin-2-yl)amino)pyrrolidine-1-carbonyl)-2,6-dimethylphenyl)acrylamide] | 1000 to 10000 |
| C=CC(=O)N1CCOc2cc(C(=O)N3CC[C@@H](Nc4ncc(Cl)cn4)C3)ccc21 [Example 34, (R)-1-(7-(3-((5-chloropyrimidin-2-yl)amino)pyrrolidine-1-carbonyl)-2H-benzo[b][1,4]oxazin-4(3H)-yl)prop-2-en-1-one] | 100 to 1000 |
| C=CC(=O)Nc1ccc(C(=O)N2CCC[C@@H](Nc3nccc(-c4ccnn4C)n3)C2)cc1 [Example 35, (R)—N-(4-(3-((4-(1-methyl-1H-pyrazol-5-yl)pyrimidin-2-yl)amino)piperidine-1-carbonyl)phenyl)acrylamide] | 30000 to 100000 |
| C=CC(=O)Nc1ccc(C(=O)N2CCC[C@@H](Nc3nccc(N4CCOCC4)n3)C2)cc1 [Example 36, (R)—N-(4-(3-((4-morpholinopyrimidin-2-yl)amino)piperidine-1-carbonyl)phenyl)acrylamide] | 30000 to 100000 |
| C=CC(=O)Nc1ccc(C(=O)N2CCC[C@@H](Nc3nccc(OC)n3)C2)cc1 [Example 37, (R)—N-(4-(3-((4-methoxypyrimidin-2-yl)amino)piperidine-1-carbonyl)phenyl)acrylamide] | 1000 to 10000 |
| C=CC(=O)Nc1ccc(C(=O)N2CCC[C@@H](Nc3cnc(Cl)cn3)C2)cc1 [Example 38, (R)—N-(4-(3-((5-chloropyrazin-2-yl)amino)piperidine-1-carbonyl)phenyl)acrylamide] | 10000 to 30000 |
| C=CC(=O)Nc1ccc(C(=O)N2CCC[C@@H](Nc3nccc(-c4cnn(C)c4)n3)C2)cc1 [Example 39, (R)—N-(4-(3-((4-(1-methyl-1H-pyrazol-4-yl)pyrimidin-2-yl)amino)piperidine-1-carbonyl)phenyl)acrylamide] | 30000 to 100000 |
| C=CC(=O)Nc1ccc(C(=O)N2CCC[C@@H](Nc3nccc(OC4CCCC4)n3)C2)cc1 [Example 40, (R)—N-(4-(3-((4-(cyclopentyloxy)pyrimidin-2-yl)amino)piperidine-1-carbonyl)phenyl)acrylamide] | 10000 to 30000 |
| CCC(=O)Nc1ccc(C(=O)N2CCC[C@@H](Nc3nccc(-c4cn[nH]c4)n3)C2)cc1 [Example 41, (R)—N-(4-(3-((4-(1H-pyrazol-4-yl)pyrimidin-2-yl)amino)piperidine-1-carbonyl)phenyl)propionamide] | 30000 to 100000 |
| CCC(=O)Nc1ccc(C(=O)N2CCC[C@@H](Nc3nccc(N4CCOCC4)n3)C2)cc1 [Example 42, (R)—N-(4-(3-((4-morpholinopyrimidin-2-yl)amino)piperidine-1-carbonyl)phenyl)propionamide] | 30000 to 100000 |
| CCC(=O)Nc1ccc(C(=O)N2CC[C@@H](Nc3nccc(-c4cn[nH]c4)n3)C2)cc1 [Example 43] | 1000 to 10000 |
| C=CC(=O)Nc1ccc(C(=O)N2CC[C@@H](Nc3nccc(-c4cn[nH]c4)n3)C2)cc1 [Example 44, (R)—N-(4-(3-((4-(1H-pyrazol-4-yl)pyrimidin-2-yl)amino)pyrrolidine-1-carbonyl)phenyl)acrylamide] | 100 to 1000 |
| C=CC(=O)N1CCOc2cc(C(=O)N3CC[C@@H](Nc4ncc(Cl)cn4)C3)ccc21 [Example 51, (R)-1-(7-(3-((5-chloropyrimidin-2-yl)amino)pyrrolidine-1-carbonyl)-2H-benzo[b][1,4]oxazin-4(3H)-yl)prop-2-en-1-one] | 100 to 1000 |
| C=CC(=O)Nc1ccc(C(=O)N2CC[C@@H](Nc3ncc(Cl)c(OC4CC4)n3)C2)cc1 [Example 56, (R)—N-(4-(3-((5-chloro-4-cyclopropoxypyrimidin-2-yl)amino)pyrrolidine-1-carbonyl)phenyl)acrylamide] | < 100 |
| C=CC(=O)Nc1ccc(C(=O)N2CC[C@@H](Nc3ncc(C)cn3)C2)cc1 [Example 57, (R)—N-(4-(3-((5-methylpyrimidin-2-yl)amino)pyrrolidine-1-carbonyl)phenyl)acrylamide] | 100 to 1000 |
| C=CC(=O)Nc1ccc(C(=O)N2CC[C@@H](Nc3cnc(C(F)(F)F)cn3)C2)cc1 [Example 60, (R)—N-(4-(3-((5-(trifluoromethyl)pyrazin-2-yl)amino)pyrrolidine-1-carbonyl)phenyl)acrylamide] | 100 to 1000 |
| C=CC(=O)Nc1ccc(C(=O)N2CC[C@@H](Nc3cnc(C)cn3)C2)cc1 [Example 61, (R)—N-(4-(3-((5-methylpyrazin-2-yl)amino)pyrrolidine-1-carbonyl)phenyl)acrylamide] | 1000 to 10000 |
| C=CC(=O)N1CCOc2cc(C(=O)N3CC[C@@H](Nc4ncc(Cl)c(OC)n4)C3)ccc21 [Example 63, (R)-1-(7-(3-((5-chloro-4-methoxypyrimidin-2-yl)amino)pyrrolidine-1-carbonyl)-2H-benzo[b][1,4]oxazin-4(3H)-yl)prop-2-en-1-one] | 100 to 1000 |
| C=CC(=O)Nc1ccc(C(=O)N2CC[C@@H](Nc3ccc(Cl)cn3)C2)cc1 [Example 64, (R)—N-(4-(3-((5-chloropyridin-2-yl)amino)pyrrolidine-1-carbonyl)phenyl)acrylamide] | 100 to 1000 |
| C=CC(=O)N1CCCc2cc(C(=O)N3CC[C@@H](Nc4ncc(Cl)c(OC)n4)C3)ccc21 [Example 65, (R)-1-(6-(3-((5-chloro-4-methoxypyrimidin-2-yl)amino)pyrrolidine-1-carbonyl)-3,4-dihydroquinolin-1(2H)-yl)prop-2-en-1-one] | < 100 |
| C=CC(=O)Nc1ccc(C(=O)N2CC[C@@H](Nc3ncc(Cl)c(OC)n3)C2)cc1N1CCOCC1 [Example 68, (R)—N-(4-(3-((5-chloro-4-methoxypyrimidin-2-yl)amino)pyrrolidine-1-carbonyl)-2-morpholinophenyl)acrylamide] | < 100 |
| C=CC(=O)Nc1ccc(C(=O)N2CC[C@@H](Nc3ncc(Cl)cn3)C2)cc1-c1cnn(C)c1 [Example 69, (R)—N-(4-(3-((5-chloropyrimidin-2-yl)amino)pyrrolidine-1-carbonyl)-2-(1-methyl-1H-pyrazol-4-yl)phenyl)acrylamide] | 100 to 1000 |
| C=CC(=O)Nc1ccc(C(=O)N2CC[C@@H](Nc3ncc(F)c(OC4CC4)n3)C2)cc1 [Example 71, (R)—N-(4-(3-((4-cyclopropoxy-5-fluoropyrimidin-2-yl)amino)pyrrolidine-1-carbonyl)phenyl)acrylamide] | 100 to 1000 |
| C=CC(=O)Nc1ncc(C(=O)N2CC[C@@H](Nc3ncc(Cl)c(OC)n3)C2)s1 [Example 73, (R)—N-(5-(3-((5-chloro-4-methoxypyrimidin-2-yl)amino)pyrrolidine-1-carbonyl)thiazol-2-yl)acrylamide] | 100 to 1000 |
| C=CC(=O)Nc1ccc(C(=O)N2CC[C@@H](Nc3ncc(Cl)c(OC)n3)C2)cc1N1CCCCC1 [Example 74, (R)—N-(4-(3-((5-chloro-4-methoxypyrimidin-2-yl)amino)pyrrolidine-1-carbonyl)-2-(piperidin-1-yl)phenyl)acrylamide] | < 100 |
| C=CC(=O)Nc1ccc(C(=O)N2CC[C@@H](Nc3ccc(C)cn3)C2)cc1 [Example 75, (R)—N-(4-(3-((5-methylpyridin-2-yl)amino)pyrrolidine-1-carbonyl)phenyl)acrylamide] | 1000 to 10000 |
